Data taken from patent US7709488B2, “Imidazopyridine-derivatives as inducible no-synthase inhibitors” (Altana Pharma AG, priority 2003, dated 2010).

How the values were obtained:
[1] = molecular target: human inducible NO-synthase (Homo sapiens, UniProt P35228); assay: Measurement of inducible NO-synthase activity ([3H]arginine conversion, crude cytosolic fraction); format: biochemical; settings: 0.1 μM arginine, 45 to 60 min at 37° C., pH 7.2; for IC50: read-out: Inhibition of iNOS activity [measured as −logIC50 (mol/l)] (converted)
Description: Measurement of Inducible NO-Synthase Activity
The assay is performed in 96-well microtiter F-plates (Greiner, Frickenhausen, FRG) in a total volume of 100 μl in the presence of 100 nM calmodulin, 226 μM CaCl2, 477 μM MgCl2, 5 μM flavin-adenine-dinucleotide (FAD), 5 μM flavin mononucleotide (FMN), 0.1 mM NADPH, 7 mM glutathione, 10 μM BH4 and 100 mM HEPES pH 7.2. Arginine concentrations are 0.1 μM for enzyme inhibition experiments. 150000 dpm of [^3H]arginine are added to the assay mixture. Enzyme reaction is started by the addition of 4 μg of a crude cytosolic fraction containing human inducible NO-synthase and the reaction mixture is incubated for 45 to 60 min at 37° C. Enzyme reaction is stopped by adding 10 μl of 2M MES-buffer pH 5.0. 50 μl of the incubation mixture are transferred into a MADP N65 filtration microtiter plate (Millipore, Eschbom, FRG) containing already 50 μl of AG-50W-X8 cation exchange resin (Biorad, München, FRG). The resin in the Na loaded form is pre-equilibrated in water and 70 μl (corresponding to 50 μl dry beads) are pipetted under heavy stirring with a 8 channel pipette into the filtration plate. After pipetting 50 μl of the enzyme reaction mixture onto the filtration plates, the plates are placed on a filtration manifold (Porvair, Shepperton, UK) and the flow through is collected in Pico scintillation plates (Packard, Meriden, Conn.). The resin in the filtration plates is washed with 75 μl of water (1×50 μl and 1×25 μl) which is also collected in the same plate as the sample. The total flow through of 125 μl is mixed with 175 μl of Microscint-40 scintillation cocktail (Packard) and the scintillation plate is sealed with TopSeal P-foil (Packard). Scintillation plates are counted in a scintillation counter.
For the measurement of inducible NO-synthase-inhibiting potencies of compounds increasing concentrations of inhibitors were included into the incubation mixture. IC50-values were calculated from the percent inhibition at given concentrations by nonlinear least square fitting.
The inhibitory values determined for the compounds according to the invention follow from the following table A, in which the compound numbers correspond to the example numbers.

| Compound | IC50 [1] | melting point | Inhibition of iNOS activity [measured as −logIC50] [1] |
| --- | --- | --- | --- |
| COc1ccnc(CCc2nc3cc(-c4ccc(S(=O)(=O)N5CCN(C)CC5)cc4)cnc3[nH]2)c1 [Compound 1] | 19.5 nM | 193 to 195 °C | – |
| COc1ccnc(CCc2nc3cc(-c4ccc(S(=O)(=O)N5CCN(Cc6ccccc6)CC5)cc4)cnc3[nH]2)c1 [Compound 2, 2-[2-(4-Methoxypyridin-2-yl)-ethyl]-6-[4-(4-benzylpiperazin-1-yl-sulfonyl)-phenyl]-3H-imidazo-[4,5-b]pyridine] | 35.5 nM | 160 to 162 °C | – |
| COc1ccnc(CCc2nc3cc(-c4ccc(S(=O)(=O)N5CCN(c6ccccc6)CC5)cc4)cnc3[nH]2)c1 [Compound 3, 2-[2-(4-Methoxypyridin-2-yl)ethyl]-6-[4-(4-phenylpiperazin-1-yl-sulfonyl)-phenyl]-3H-imidazo-[4,5-b]pyridine] | 14.5 nM | 218 to 220 °C | – |
| COc1ccnc(CCc2nc3cc(-c4ccc(S(=O)(=O)N5CCN(c6ccc(C#N)cc6)CC5)cc4)cnc3[nH]2)c1 [Compound 4, 2-[2-(4-Methoxypyridin-2-yl)ethyl]-6-{4-[4-(4-cyanophenyl)-piperazin-1-yl-sulfonyl]-phenyl}-3H-imidazo-[4,5-b]pyridine] | 30.2 nM | 217 to 219 °C | – |
| COc1ccnc(CCc2nc3cc(-c4ccc(S(=O)(=O)N5CCN(c6ccc(C)cc6)CC5)cc4)cnc3[nH]2)c1 [Compound 5, 2-[2-(4-Methoxypyridin-2-yl)ethyl]-6-[4-(4-p-tolyl-piperazin-1-yl-sulfonyl)-phenyl]-3H-imidazo-[4,5-b]pyridine] | 26.3 nM | 150 to 154 °C | – |
| COc1ccnc(CCc2nc3cc(-c4ccc(S(=O)(=O)N5CCN(c6ccc(C)cc6C)CC5)cc4)cnc3[nH]2)c1 [Compound 6, 6-{4-[4-(2,4-Dimethylphenyl)-piperazin-1-yl-sulfonyl]-phenyl}-2-[2-(4-methoxy-pyridin-2-yl)ethyl]-3H-imidazo[4,5-b]pyridine] | 126 nM | 208 to 209 °C | – |
| COc1ccnc(CCc2nc3cc(-c4ccc(S(=O)(=O)N5CCN(c6cc(Cl)cc(Cl)c6)CC5)cc4)cnc3[nH]2)c1 [Compound 7, 6-{4-[4-(3,5-Dichlorphenyl)-piperazin-1-yl-sulfonyl]-phenyl}-2-[2-(4-methoxy-pyridin-2-yl)ethyl]-3H-imidazo[4,5-b]pyridine] | – | – | 6.51 |
| COCCN1CCN(S(=O)(=O)c2ccc(-c3cnc4[nH]c(CCc5cc(OC)ccn5)nc4c3)cc2)CC1 [Compound 8, 6-{4-[4-(2-Methoxy-ethyl)-piperazin-1-yl-sulfonyl]-phenyl}-2-[2-(4-methoxy-pyridin-2-yl)ethyl]-3H-imidazo[4,5-b]pyridine] | 42.7 nM | 206 to 208 °C | – |
| COc1ccnc(CCc2nc3cc(-c4ccc(S(=O)(=O)N5CCN(C(C)=O)CC5)cc4)cnc3[nH]2)c1 [Compound 9, 6-[4-(4-Acetyl-piperazin-1-yl-sulfonyl)-phenyl]-2-[2-(4-methoxy-pyridin-2-yl)ethyl]-3H-imidazo[4,5-b]pyridine] | 29.5 nM | 138 to 140 °C | – |
| COc1ccnc(CCc2nc3cc(-c4ccc(S(=O)(=O)N5CCOCC5)cc4)cnc3[nH]2)c1 [Compound 10, 2-[2-(4-Methoxypyridin-2-yl)ethyl]-6-[4-(morpholin-4-yl-sulfonyl)-phenyl]-3H-imidazo-[4,5-b]pyridine] | 22.9 nM | 210 to 212 °C | – |
| COc1ccnc(CCc2nc3cc(-c4ccc(S(=O)(=O)N5CCCN(C)CC5)cc4)cnc3[nH]2)c1 [Compound 11, 2-[2-(4-Methoxypyridin-2-yl)ethyl]-6-[4-(4-methyl-[1,4]diazepan-1-yl-sulfonyl)-phenyl]-3H-imidazo-[4,5-b]pyridine] | 12.9 nM | 160 to 162 °C | – |
| COc1ccnc(CCc2nc3cc(-c4ccc(S(=O)(=O)N5CCC(C)CC5)cc4)cnc3[nH]2)c1 [Compound 12, 2-[2(4-Methoxypyridin-2-yl)ethyl]-6-[4-(4-methyl-piperidin-1-yl-sulfonyl)-phenyl]-3H-imidazo-[4,5-b]pyridine] | 25.1 nM | 186 to 188 °C | – |
| COc1ccnc(CCc2nc3cc(-c4ccc(S(=O)(=O)N5CCC(C(=O)c6ccccc6)CC5)cc4)cnc3[nH]2)c1 [Compound 13, 6-[4-(4-Benzoyl-piperidin-1-yl-sulfonyl)-phenyl]-2-[2-(4-methoxy-pyridin-2-yl)ethyl]-3H-imidazo[4,5-b]pyridine] | 33.1 nM | 174 to 175 °C | – |
| COc1ccnc(CCc2nc3cc(-c4ccc(S(=O)(=O)N5CCC6(CC5)OCCO6)cc4)cnc3[nH]2)c1 [Compound 14, 6-[4-(1,4-dioxa-8-azaspiro[4.5]decan-8-yl-sulfonyl)-phenyl]-2-[2-(4-methoxy-pyridin-2-yl)ethyl]-3H-imidazo[4,5-b]pyridine] | 26.3 nM | 121 to 122 °C | – |
| COc1ccnc(CCc2nc3cc(-c4ccc(S(=O)(=O)N5CCc6cc(OC)c(OC)cc6C5)cc4)cnc3[nH]2)c1 [Compound 15, 6-[4-(6,7-Dimethoxy-1,2,3,4-tetrahydroisoquinolin-2-yl-sulfonyl)-phenyl]-2-[2-(4-methoxy-pyridin-2-yl)ethyl]-3H-imidazo[4,5-b]pyridine] | 34.7 nM | 207 to 208 °C | – |
| COc1ccnc(CCc2nc3cc(-c4ccc(S(=O)(=O)N(C)C)c(OC(F)(F)F)c4)cnc3[nH]2)c1 [Compound 21, 4-{2-[2-(4-Methoxypyridin-2-yl)ethyl]-3H-imidazo[4,5-b]pyridin-6-yl}-N,N-dimethyl-2-trifluormethoxy-benzenesulfonamide] | – | – | 6.95 |
| COc1ccnc(CCc2nc3cc(-c4ccc(S(=O)(=O)N(C)C)c(C(F)(F)F)c4)cnc3[nH]2)c1 [Compound 22, 4-{2-[2-(4-Methoxypyridin-2-yl)ethyl]-3H-imidazo[4,5-b]pyridin-6-yl}-N,N-dimethyl-2-trifluormethyl-benzenesulfonamide] | – | – | 7 |
| COc1ccnc(CCc2nc3cc(-c4ccc(S(=O)(=O)N(C)c5ccc(Cl)cc5)cc4)cnc3[nH]2)c1 [Compound 28, N-(4-Chlorphenyl)-N-methyl-4-{2-[2-(4-methoxypyridin-2-yl)ethyl]-3H-imidazo-[4,5-b]pyridin-6-yl}benzenesulfonamid] | – | – | 7.41 |

Second part, led by results:

| IC50 [1] | melting point | Compound | Inhibition of iNOS activity [measured as −logIC50] [1] |
| --- | --- | --- | --- |
| 24 nM | 230 to 232 °C | COc1ccnc(CCc2nc3cc(-c4ccc(S(=O)(=O)N5CCNC(=O)CC5)cc4)cnc3[nH]2)c1 [Compound 16, 6-[4-(1,4-Diazepan-5-one-1-yl-sulfonyl)-phenyl]-2-[2-(4-methoxy-pyridin-2-yl)ethyl]-3H-imidazo[4,5-b]pyridine] | – |
| 42.7 nM | 218 to 220 °C | COc1ccnc(CCc2nc3cc(-c4ccc(S(=O)(=O)NCCO)cc4)cnc3[nH]2)c1 [Compound 17, N-(2-Hydroxyethyl)-4-{2-[2-(4-methoxypyridin-2-yl)ethyl]-3H-imidazo[4,5-b]pyridin-6-yl}benzenesulfonamid] | – |
| 91.2 nM | 127 to 128 °C | COc1ccnc(CCc2nc3cc(-c4ccc(S(=O)(=O)N(CCO)CCO)cc4)cnc3[nH]2)c1 [Compound 18, N,N-Bis-(2-hydroxyethyl)-4-{2-[2-(4-methoxypyridin-2-yl)ethyl]-3H-imidazo-[4,5-b]pyridin-6-yl}benzenesulfonamid] | – |
| 18.6 nM | 211 to 212 °C | COc1ccnc(CCc2nc3cc(-c4ccc(S(=O)(=O)NCc5ccccc5)cc4)cnc3[nH]2)c1 [Compound 19, N-Benzyl-4-{2-[2-(4-methoxypyridin-2-yl)ethyl]-3H-imidazo-[4,5-b]pyridin-6-yl}benzenesulfonamid] | – |
| 50.1 nM | 199 to 200 °C | COc1ccnc(CCc2nc3cc(-c4ccc(S(=O)(=O)NC5CCCCC5)cc4)cnc3[nH]2)c1 [Compound 20, N-Cyclohexyl-4-{2-[2-(4-methoxypyridin-2-yl)ethyl]-3H-imidazo-[4,5-b]pyridin-6-yl}benzenesulfonamid] | – |
| 67.6 nM | 179 to 180 °C | COc1ccnc(CCc2nc3cc(-c4ccc(S(=O)(=O)N(C)C)cc4C)cnc3[nH]2)c1 [Compound 23, 4-{2-[2-(4-Methoxypyridin-2-yl)ethyl]-3H-imidazo[4,5-b]pyridin-6-yl}-N,N-dimethyl-3-methyl-benzenesulfonamide] | – |
